This is an account of results in patent publication US20240041813A1, “VERY-LONG-CHAIN POLYUNSATURATED FATTY ACIDS, ELOVANOID HYDROXYLATED DERIVATIVES, AND METHODS OF USE” (priority 2020, published 2024).

Each structure is given as a SMILES string. Entries after “also recorded” stand apart in the source; their conditions may differ.

Test [1] deals with ACE2. Briefly: HCEC challenged with IFNγ: Ace2 gene expression. Type of test: cell-based, human. The following applies: IFNγ 100 ng/ml. The source says: (§1) All experiments with human corneal epithelial cells were approved by the Institutional Review Board of LSUHNO and conducted in accordance with NIH guidelines. HCEC were kept frozen in the laboratory at passage 2544. Cells were maintained in keratinocyte growth (KGM) medium containing the keratinocyte basal medium (KBM) (Lonza: CC-3101) supplemented with bovine pituitary extract (BPE), hEGF, Insulin, Hydrocortisone and Gentamicin Sulfate-Amphotericin (GA-1000) (Lonza, Cat. CC-4131). For all experiments, cells were seeded at 30,000 cells/cm2.
(§2) For screening the stimulation of receptor ACE2 by cytokines, the HCEC were cultured with KGM until 50-60% confluence. Then, changed to KBM containing IL-1β, -2, -6 and 8, IFN-α, -ε, and -γ or TNFα at 1, 10 or 100 ng/ml. The cells were harvested after 6 hours and analyze for the gene expression of Ace2. In other experiments, HCEC were stimulated with IFNγ, and thereafter, lipid mediators were added. For the Alexa 594-conjugated RBD binding, IFNγ was used as a cytokine trigger. At 12 hours after cytokine exposure and lipid mediator treatments, […] of labeled RBD was added to the medium. The evaluation of RBD binding was conducted 24 hours after.
Quantitative PCR was performed with the Biomark HD system (Fluidigm, San Francisco, CA, USA). […]

Test [2] has as its system ACE2. Briefly: Rat cornea alkali burn: corneal RNA-seq, Ace2 gene expression. Type of test: in vivo. The following applies: rat cornea after alkali burn; eye drops 3 times/day for 14 days; RNA-seq day 14. On the procedure: The rats were anesthetized by intraperitoneal injection of Ketamine (50-100 mg/kg) plus xylazine (5-10 mg/kg). A 4 mm diameter filter paper soaked in 1 N NaOH was placed on the central cornea of the right eye for 45 seconds, and then the eye was thoroughly washed with […] of saline. After injury, the rats were randomly divided into five treatment groups: vehicle; lipoxin A4 (LXA4) from Cayman Chemical (Ann Arbor, MI, USA); R,R Resolvin D6 isomer (RvD6i), R,R neuroprotection D (NPD1), and elovanoid (ELV)-N32. All lipid solutions were prepared at the final concentration of […] using PBS with the minimal contamination of ethanol by evaporating the ethanol and immediately dissolve the lipids in PBS, then vortex well for 2 min. Topical administration (20 μl) was done 3×/day for 14 days. The experiments were double-blinded with the lipid mediators coded during the whole experiments. At the end of the study, when all data was collected, the code was opened.
Injured corneas (n=5/condition) were harvested and homogenized with TRIzol (Thermo Fisher Scientific) on ice with a glass Dounce homogenizer. RNA sequencing was performed as described^14. Briefly, after mRNA extraction and determination of purity, 8 ng of total RNA was reverse transcribed, and total cDNAs were amplified using ISPCR primer, and the library was made with the Nextera XT DNA library preparation kit (Illumina, San Diego, CA, USA). The libraries were pooled with the same molarity and sequenced using the NextSeq 500/550 High Output Kit v2 (75 cycles, Illumina). After demultiplexing, RNA-seq data were aligned to the Rattus Norvegicus reference genome (.ensembl.org/pub/release-98/fasta/rattus_norvegicus/dna/) using the Subread package v2.0.1 alignment function39. The BAM files for sequencing data alignment were counted using featureCounts function of Subread tool^40 using the macOS Catalina. The raw count data were subjected to differential gene expression analysis using DESeq2 package for R^41 with the vehicle group as reference. The adjusted p-values were named as the false discover rate (FDR).

The test system of test [3] is Alexa 594-RBD. The experiment in a line: HCEC challenged with IFNγ: Alexa 594-RBD binding (unbiased imaging, Imaris). Conditions: IFNγ 100 ng/ml and lipid mediators 200 nM for 12 h, images 24 h after RBD. Type of test: cell-based, human. On the procedure: as §2
Twenty-four hours after Alexa 594-RBD was added to the HCEC, the cells were washed with PBS (3×/5 min) and fixed with 4% paraformaldehyde for 30 minutes at RT. The HCEC were washed 2× with PBS and stained with Hoechst 33342 Solution (ThermoFisher Scientific, Cat. 62249) for 30 minutes at RT. Next, the HCEC were washed 2× with PBS before imaging. For unbiased data collection, 7 designated areas were defined in each well (FIG. 63) and captured with an Olympus FV3000 confocal laser scanning microscopy under “Multi Area Time Lapse” (MATL) mode. All images were acquired with the same parameters and Z-section range, converted and inputted in the Imaris software version 9.5.1. The threshold for the control images was defined by the HCEC without Alexa 594-conjugated RBD of S protein and using it as a threshold filter for the Imaris batch image processing function. The sum of total intensity for each image was used to evaluate the binding efficiency.

In test [4] the test system is human corneal epithelial cells (HCEC). The experiment in a line: HCEC challenged with IFNγ: SASP secretome (β-Gal staining). Type of test: cell-based. The following applies: HCEC 24 h after IFN-γ challenge.
Test [5] concerns Alexa 594-RBD. Type of test: in vivo. Conditions: rat cornea after alkali burn; 14 days treatment; Alexa 594-RBD 1 μg/eye, 3 times at day 15, examined a day later.
Test [6] deals with TMPRSS2. Briefly: TMPRSS2 mRNA by Taqman qPCR in human alveolar cells. Type of test: cell-based. Conditions: in the presence of IL1β. On the procedure: Real-Time PCR using Taqman probes and SYBR green assay. cDNA was produced using lug of total RNA extracted by RNAeasy (Qiagen, Hilden Germany, cat #74104). The first strand of cDNA was produced using iScript™ Reverse Transcription Supermix for RT-qPCR (BioRad cat #1708840). The quantification of Sirt 1, RNF-146, Bcl2, BcL-xl was performed using SYBRgreen assay with primers designed in house (Table 1) using SsoAdvanced Universal SYBR Green Supermix (Biorad cat #1725270). The quantification of ACE2 and TMPRSS2 mRNA was performed using Taqman probes (Biorad cat #qHsaCEP0051563 & qHsaCIP0028919 respectively) labeled with FAM and standardized using PGK1 probe labeled with HEX (Biorad cat #qHsaCEP0050174).
In general terms: Real-time PCR tracks product formation cycle by cycle.

For test [7], the system named is Cdkn2a (p16INK4a). The experiment in a line: HCEC challenged with IFNγ: Cdkn2a gene expression. Type of test: cell-based, human. The following applies: IFNγ 100 ng/ml.
Excerpt: as §1, §2
Quantitative PCR was performed with the Biomark HD system (Fluidigm, San Francisco, CA, USA). Briefly, 200 ng of RNA was reverse-transcribed using iScript Reverse Transcription Supermix (Bio-Rad), and the cDNA was pre-amplified using the PreAmp Master Mix (PN 100-5580; Fluidigm). The cDNA was then subjected to Exonuclease I treatment and diluted 5 times in TE Buffer. The qPCR reaction mixture and primer reaction mixture were made and loaded into the Biomark 96.96 IFC™ (Integrated Fluidic Circuit). The enzyme reaction was mixed using Juno™ Controller (Fluidigm) and run using the cycling program of (i) 70° C. for 40 minutes followed by 60° C. for 30 seconds, (ii) hot start for 1 minute at 95° C., (iii) 30 cycles of denaturation at 96° C. for 5 seconds, and annealing at 60° C. for 20 seconds, and (iv) melting curves between 60° C. and 95° C. with 1° C. increments/3 seconds. The Ct value of target genes was normalized to the house-keeping genes Gapdh, Hprt1, and Tfrc before normalized to the vehicle group. Relative fold changes from the ΔΔCT calculation was used to make the graph.

In the case of `CC/C=C\CC(O)\C=C/C=C/C=C/C(O)C/C=C\C/C=C\CCCCCCCCCCCCC(=O)O` [ELV-N32, (14Z,17Z,20R,21E,23E,25Z,27S,29Z)-20,27-dihydroxydo-triaconta-14,17,21,23,25,29-hexaenoic acid], in test [1], the “IFNγ-triggered Ace2 activation” value is listed as “markedly attenuated; also recorded: suppressed”. Also, the “Ace2 gene expression levels” value in test [2] is on record as “decrease”. Further, the “IFNγ-stimulated Alexa 594-RBD binding” value in test [3] is listed as “decrease; also recorded: attenuated”. For the same compound, the “senescence programming genes and SASP secretome activation (β-Gal)” value in test [4] was “blocked; also recorded: suppressed”. For the same compound, the “binding of Alexa 594-RBD to injured cornea” value in test [5] is recorded as “decrease; also recorded: counteracted”. In test [6], the TMPRSS2 expression result is “decreased”. The Cdkn2a activation entry in test [7] is given as “decrease”.
